Experimental data from ChEMBL document CHEMBL5665443, “Enzyme Inhibitor Single Concentration assay results for EUbOPEN Chemogenomics Library” (2024).
Where a SMILES comes first, the peptide text is derived from it. Bridges are numbered along the chain shown (N, C = ends). [ ]: non-standard residue; d: D form. Orn = NCCC[C@H](N)C(=O)O; Mpa = O=C(O)CCS

Key:
Conditions in all cases: Hit No
[1] = target: Methyl-CpG-binding domain protein 4 (Homo sapiens) (UniProt O95243);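 further: MBD4 activity read as fluorescence at 594 nm from cleavage and release of a quenched duplex DNA oligonucleotide, with APE1 coupled to incise the strand and raise turnover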
Description: Inhibition of MBD4 by quantifying inhibition of MBD4-mediated cleavage and dissociation of quenched duplex DNA oligonucleotides, measured as fluorescence at 594 nm. To generate a functional strand incision and increase turn-over this assay is coupled to APE1.

[2] = target: G/T mismatch-specific thymine DNA glycosylase (Homo sapiens) (UniProt Q13569);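 further: human TDG cleavage of quenched duplex DNA oligonucleotides coupled to APE1, strand release read as fluorescence at 594 nm, inhibition of TDG activity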
Description: Inhibition of TDG by quantifying inhibition of TDG-mediated cleavage and dissociation of quenched duplex DNA oligonucleotides, measured as fluorescence at 594 nm. To generate a functional strand incision and increase turn-over this assay is coupled to APE1.

[3] = target: T1, Single-strand selective monofunctional uracil DNA glycosylase (Homo sapiens) (UniProt Q53HV7);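 further: enzymatic SMUG1 assay coupled with APE1, reading fluorescence at 594 nm released when a quenched double-stranded DNA oligonucleotide substrate is cleaved and separated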
T1 sequence (whole entry): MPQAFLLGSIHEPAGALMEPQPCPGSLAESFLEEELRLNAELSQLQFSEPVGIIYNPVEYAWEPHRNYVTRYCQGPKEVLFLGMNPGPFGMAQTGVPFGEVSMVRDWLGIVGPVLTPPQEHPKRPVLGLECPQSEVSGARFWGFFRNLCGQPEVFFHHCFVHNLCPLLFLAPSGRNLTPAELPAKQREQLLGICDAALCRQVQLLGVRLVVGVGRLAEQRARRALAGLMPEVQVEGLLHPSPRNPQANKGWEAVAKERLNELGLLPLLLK
Description: Inhibition of SMUG1 by quantifying inhibition of SMUG1-mediated cleavage and dissociation of quenched duplex DNA oligonucleotides, measured as fluorescence at 594 nm. To generate a functional strand incision and increase turn-over this assay is coupled to APE1.

[4] = target: Uracil-DNA glycosylase (Homo sapiens) (UniProt P13051);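 further: UNG excision on a quenched double-stranded DNA oligo probe, with APE1 added for strand incision and turnover, read as fluorescence at 594 nm as strands separate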
Description: Inhibition of UNG by quantifying inhibition of UNG-mediated cleavage and dissociation of quenched duplex DNA oligonucleotides, measured as fluorescence at 594 nm. To generate a functional strand incision and increase turn-over this assay is coupled to APE1.

[5] = target: Endonuclease 8-like 1 (Homo sapiens) (UniProt Q96FI4);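 further: fluorescence at 594 nm from quenched duplex DNA oligonucleotides released by NEIL1 cleavage and strand separation, reported as reduction of this enzyme activity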
Description: Inhibition of NEIL1 by quantifying inhibition of NEIL1-mediated cleavage and dissociation of quenched duplex DNA oligonucleotides, measured as fluorescence at 594 nm.

[6] = target: N-glycosylase/DNA lyase (Homo sapiens) (UniProt O15527);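 further: OGG1 cleavage of a quenched duplex DNA oligonucleotide, coupled to APE1 for strand incision, read as fluorescence at 594 nm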
Description: Inhibition of OGG1 by quantifying inhibition of OGG1-mediated cleavage and dissociation of quenched duplex DNA oligonucleotides, measured as fluorescence at 594 nm. To generate a functional strand incision and increase turn-over this assay is coupled to APE1.

[7] = target: T2, Endonuclease 8-like 2 (Homo sapiens) (UniProt Q969S2);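 further: fluorescence at 594 nm reports NEIL2 cutting and release of a quenched double-stranded DNA oligo substrate, reduced signal read as inhibition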
T2 sequence (whole entry): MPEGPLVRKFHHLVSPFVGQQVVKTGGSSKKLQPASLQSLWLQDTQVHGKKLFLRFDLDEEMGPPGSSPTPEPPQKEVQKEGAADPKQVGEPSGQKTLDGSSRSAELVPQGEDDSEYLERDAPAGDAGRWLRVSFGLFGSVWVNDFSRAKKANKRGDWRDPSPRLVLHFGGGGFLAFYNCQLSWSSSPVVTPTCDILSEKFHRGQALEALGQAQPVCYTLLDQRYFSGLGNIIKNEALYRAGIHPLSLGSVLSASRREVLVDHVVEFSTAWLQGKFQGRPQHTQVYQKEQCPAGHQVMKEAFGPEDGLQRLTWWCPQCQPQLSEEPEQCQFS
Description: Inhibition of NEIL2 by quantifying inhibition of NEIL2-mediated cleavage and dissociation of quenched duplex DNA oligonucleotides, measured as fluorescence at 594 nm.

N-glycosylase/DNA lyase (Homo sapiens), sequence (O15527 whole entry): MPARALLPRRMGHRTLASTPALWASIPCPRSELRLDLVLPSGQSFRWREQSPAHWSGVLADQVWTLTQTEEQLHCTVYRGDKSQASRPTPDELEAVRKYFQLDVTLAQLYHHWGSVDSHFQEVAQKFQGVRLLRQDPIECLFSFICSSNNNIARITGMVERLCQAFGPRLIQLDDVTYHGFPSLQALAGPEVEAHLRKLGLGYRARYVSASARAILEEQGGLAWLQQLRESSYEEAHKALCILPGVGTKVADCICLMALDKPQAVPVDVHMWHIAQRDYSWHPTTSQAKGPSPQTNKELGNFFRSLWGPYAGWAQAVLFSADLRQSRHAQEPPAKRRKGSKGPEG
Uracil-DNA glycosylase (Homo sapiens), sequence (P13051 whole entry): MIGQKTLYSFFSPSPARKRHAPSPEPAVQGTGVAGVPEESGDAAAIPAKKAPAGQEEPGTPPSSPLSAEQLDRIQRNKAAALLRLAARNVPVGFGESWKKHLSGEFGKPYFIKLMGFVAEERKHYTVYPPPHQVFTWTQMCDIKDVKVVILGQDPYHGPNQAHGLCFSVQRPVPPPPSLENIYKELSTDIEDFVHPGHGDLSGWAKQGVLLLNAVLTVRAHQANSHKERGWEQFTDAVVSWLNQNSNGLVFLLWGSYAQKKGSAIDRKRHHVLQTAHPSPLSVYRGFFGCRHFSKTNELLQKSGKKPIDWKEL
Endonuclease 8-like 1 (Homo sapiens), sequence (Q96FI4 whole entry): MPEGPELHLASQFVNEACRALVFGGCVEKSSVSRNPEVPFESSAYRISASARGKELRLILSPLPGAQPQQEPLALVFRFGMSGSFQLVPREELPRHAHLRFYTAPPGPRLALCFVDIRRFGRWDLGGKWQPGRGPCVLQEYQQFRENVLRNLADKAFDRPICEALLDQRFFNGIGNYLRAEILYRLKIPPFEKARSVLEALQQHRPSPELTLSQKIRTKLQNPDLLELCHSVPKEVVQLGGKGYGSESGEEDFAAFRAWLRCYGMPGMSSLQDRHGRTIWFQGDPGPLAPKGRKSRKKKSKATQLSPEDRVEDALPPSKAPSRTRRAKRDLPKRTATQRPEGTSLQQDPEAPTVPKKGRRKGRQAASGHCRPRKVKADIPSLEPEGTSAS
Methyl-CpG-binding domain protein 4 (Homo sapiens), sequence (O95243 whole entry, the tested form may be a part): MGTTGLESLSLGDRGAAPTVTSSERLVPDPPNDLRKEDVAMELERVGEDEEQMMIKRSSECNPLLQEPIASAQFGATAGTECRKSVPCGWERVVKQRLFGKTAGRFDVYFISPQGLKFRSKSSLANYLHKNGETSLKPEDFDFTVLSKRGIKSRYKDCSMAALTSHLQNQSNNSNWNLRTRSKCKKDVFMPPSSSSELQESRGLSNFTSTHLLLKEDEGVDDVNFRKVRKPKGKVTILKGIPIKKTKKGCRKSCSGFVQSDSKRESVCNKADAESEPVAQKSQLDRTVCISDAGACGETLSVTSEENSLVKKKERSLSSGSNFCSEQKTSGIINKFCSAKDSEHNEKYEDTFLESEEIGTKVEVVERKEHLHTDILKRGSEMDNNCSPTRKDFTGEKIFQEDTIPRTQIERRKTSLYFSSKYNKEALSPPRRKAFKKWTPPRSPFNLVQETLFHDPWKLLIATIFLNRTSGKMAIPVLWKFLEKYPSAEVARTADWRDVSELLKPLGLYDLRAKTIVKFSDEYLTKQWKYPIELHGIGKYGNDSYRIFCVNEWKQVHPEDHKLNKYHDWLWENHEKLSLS
G/T mismatch-specific thymine DNA glycosylase (Homo sapiens), sequence (Q13569 whole entry): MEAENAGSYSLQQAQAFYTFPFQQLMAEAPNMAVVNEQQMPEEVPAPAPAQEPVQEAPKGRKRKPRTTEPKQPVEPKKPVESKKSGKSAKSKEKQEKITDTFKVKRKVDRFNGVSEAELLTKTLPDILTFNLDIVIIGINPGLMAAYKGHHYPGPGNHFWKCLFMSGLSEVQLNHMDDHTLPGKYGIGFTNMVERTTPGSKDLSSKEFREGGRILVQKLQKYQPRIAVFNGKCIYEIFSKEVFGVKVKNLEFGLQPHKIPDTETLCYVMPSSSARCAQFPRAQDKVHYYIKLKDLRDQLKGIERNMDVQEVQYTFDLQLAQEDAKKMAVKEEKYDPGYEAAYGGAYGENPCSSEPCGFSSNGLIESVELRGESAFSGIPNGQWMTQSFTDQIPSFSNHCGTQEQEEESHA

Row | SMILES | inhibition ([1]; Compound Concentration 10.0 uM) | inhibition ([2]; Compound Concentration 10.0 uM) | inhibition ([3]; Compound Concentration 10.0 uM) | inhibition ([4]; Compound Concentration 10.0 uM) | inhibition ([5]; Compound Concentration 10.0 uM) | inhibition ([6]; Compound Concentration 10.0 uM) | inhibition ([7]; Compound Concentration 10.0 uM) | inhibition ([1]; Compound Concentration 1.0 uM) | inhibition ([2]; Compound Concentration 1.0 uM) | inhibition ([3]; Compound Concentration 1.0 uM) | inhibition ([7]; Compound Concentration 1.0 uM) | inhibition ([4]; Compound Concentration 1.0 uM) | inhibition ([5]; Compound Concentration 1.0 uM) | inhibition ([6]; Compound Concentration 1.0 uM)
1 | CCn1c(CNC(=O)c2nc(Cl)cnc2N)[n+](CC)c2ccc(C(=O)N(C)CCN(C)C)cc21 | 53.4% | 96.8% | 12.7% | 2.92% | -5.14% | 14.2% | – | – | – | – | – | – | – | –
2 | Cc1ccc2[nH]c(CNCCCc3ccncc3)cc(=O)c2c1 | 56.8% | 35.6% | 7.47% | -0.701% | -2.56% | 5.93% | -5.59% | – | – | – | – | – | – | –
3 | C=CC(=O)N1CCC([C@@H]2CCNc3c(C(N)=O)c(-c4ccc(Oc5ccccc5)cc4)nn32)CC1 | – | 49.9% | 20.1% | -0.527% | -8.45% | 6.47% | – | – | – | – | – | – | – | –
4 | Cn1ncc2c(-c3c(-c4ccc(F)cn4)nn4c3COC(C)(C)C4)ccnc21 | 50.1% | 99.5% | 3.56% | 1.59% | – | -1.93% | -5.34% | – | – | – | – | – | – | –
5 | NC(=O)[C@@H]1CCCN1C(=O)[C@H](Cc1c[nH]cn1)NC(=O)[C@@H]1CCC(=O)N1 | -3.57% | 10.8% | -2.65% | – | -9.1% | -2.75% | 12.7% | – | – | – | – | – | – | –
6 | c1cc(OCCCN2CCCCC2)ccc1CN1CCCCC1 | – | 13.9% | – | – | -2.58% | -9.64% | -0.733% | – | – | – | – | – | – | –
7 | Cc1nc2sccn2c(=O)c1CCN1CCC(=C(c2ccc(F)cc2)c2ccc(F)cc2)CC1 | – | 20.8% | -6.91% | – | -4.65% | 4.32% | 7.75% | – | – | – | – | – | – | –
8 | C[C@@H]1CCNC(=O)c2cc3ccc(C(=O)Nc4nc5ccccc5n4CCCN(C)C)cc3n21 | – | – | – | – | – | – | – | -2.92% | 37.8% | 22.7% | -5.96% | 1.38% | 3.44% | 5.43%
9 | O=S(=O)(c1ccccc1)c1cnc2c(N3CCNCC3)cccc2c1 | – | – | -2.7% | -8.69% | 6.47% | -2.8% | -5.97% | – | – | – | – | – | – | –
10 | CCOc1ccc(C[C@H]2NC(=O)CCSSC[C@@H](C(=O)N3CCC[C@H]3C(=O)N[C@@H](CCCN)C(=O)NCC(N)=O)NC(=O)[C@H](CC(N)=O)NC(=O)[C@H]([C@@H](C)O)NC(=O)[C@H]([C@@H](C)CC)NC2=O)cc1 ([Mpa][dY](Et)ITNCP[Orn]G-NH2; disulfide 1-6) | – | -5.89% | -2.21% | -8.02% | 4.99% | – | 9% | – | – | – | – | – | – | –
11 | CCNC(=O)c1cc2c(N3CCOCC3C)ccnc2[nH]1 (stereo unspecified) | 52.5% | 58.1% | 15.1% | -3.94% | – | -6.36% | -7.12% | – | – | – | – | – | – | –
12 | Cc1noc([C@H]2C[C@@H](c3ccc(C(F)(F)F)cc3)CN(C(=O)N3CCS(=O)(=O)C3)C2)n1 | 42.2% | 53.6% | 5.39% | -0.51% | – | 1.56% | -5.59% | – | – | – | – | – | – | –
13 | COc1cccc(OC)c1-c1cc(C(=O)NC2(C(=O)O)C3CC4CC(C3)CC2C4)nn1-c1ccc(C(=O)N(C)CCCN(C)C)cc1C(C)C (stereo unspecified) | 10.5% | 18.3% | – | -7.25% | 2.02% | 3.59% | 7.25% | – | – | – | – | – | – | –
14 | Cc1ccc(-c2ccc3c(ccc4sc5c(c43)NCC(C)NC5=O)n2)cn1 (stereo unspecified) | – | 25.8% | 6.89% | – | -2.5% | -7.16% | – | – | – | – | – | – | – | –
15 | O=C(Nc1cnc(Oc2ccc(F)cc2)nc1)N1CCc2ncccc2[C@@H]1c1ccc(F)cc1 | 70.5% | 49.8% | 6.94% | -4.47% | – | -7.44% | -3.04% | – | – | – | – | – | – | –
16 | Cc1ccc2c(c1)c1c(n2CCc2ccc(C)nc2)CCN(C)C1 | – | -5.76% | -3.57% | – | -8.95% | – | 3.01% | – | – | – | – | – | – | –
17 | C[C@@H]1CN(Cc2ccc(F)cc2)CCN1C(=O)COc1ccc(Cl)cc1NC(N)=O | -0.315% | -7.21% | -3.18% | – | 8.25% | – | 1.76% | – | – | – | – | – | – | –
18 | CN1C2CCC1CC(OC(c1ccc(F)cc1)c1ccc(F)cc1)C2 (stereo unspecified) | – | – | – | -4.51% | 1.28% | – | -4.23% | – | – | – | – | – | – | –
19 | CCOc1ccn(-c2ccc(F)cc2)c(=O)c1C(=O)Nc1ccc(Oc2ccnc(N)c2Cl)c(F)c1 | – | 59.2% | 30.4% | 6.57% | 6.08% | -7.89% | – | – | – | – | – | – | – | –
